Laboratory results published in patent US4353904A, “Phenylpiperazine derivatives of 1,3,4-oxadiazolylphenols, and therapeutic agents containing these compounds” (BASF Aktiengesellschaft, priority 1980, dated 1982).

What was measured:
blood pressure = assay: Hypotensive action in rats under urethane narcosis (carotid artery blood pressure, intravenous administration); type: in vivo, male Sprague-Dawley rats; conditions: rat; for ED20: iv, urethane narcosis 1.78 g/kg i.p., compound i.v. into jugular vein, read-out: Hypotensive action ED 20% (dose which caused a 20% reduction in blood pressure); for Hypotensive action R.A. (relative activity, Urapidil = 1.00): urethane narcosis, i.v., relative to Urapidil = 1.00
Procedure: Male Sprague-Dawley rats weighing 220-280 g were used, under urethane narcosis (1.78 g/kg, administered intraperitoneally) for the investigation. The blood pressure was measured directly in the carotid artery. The compound was administered intravenously into the jugular vein. The dose (mg/kg) which caused a 20% reduction in blood pressure was determined as the ED 20%. | ^(1) Rat. Urethane narcosis. Intravenous administration. | ^(2) Relative activity.

[1] = Acute toxicity, intraperitoneal administration; conditions: in vivo, ip, mouse, groups of 10 female NMRI mice, read-out: Toxicity LD 50
Procedure: In addition to the hypotensive action, the acute toxicity (LD 50, mg/kg), for intraperitoneal administration, was determined for groups of 10 female NMRI mice, weighing 22-27 g.
^(3) Mouse. Intraperitoneal

[2] = Therapeutic range / therapeutic index (quotient of LD 50 and ED 20%); conditions: in vivo; quotient of LD 50 (mouse i.p.) and ED 20% (rat i.v.)
Text: The therapeutic range is the quotient of the LD 50 and the ED 20%.

Structure (SMILES)	ED20 (blood pressure) [mg/kg]	Hypotensive action R.A. (relative activity, Urapidil = 1.00) (blood pressure)	LD50 [1] [mg/kg]	selectivity ratio [2]
CCOc1ccccc1N1CCN(CC(O)COc2cccc(-c3nnco3)c2)CC1 (stereo not shown) [Example 9, 1-[3-(1,3,4-Oxadiazol-2-yl)-phenoxy]-3-[4-(2-ethoxyphenyl)-piperazin-1-yl]-propan-2-ol]	0.0084	22.50	215	25600
COc1ccccc1N1CCN(CC(O)COc2cccc(-c3nnc(C)o3)c2)CC1 (stereo not shown) [Example 10, 1-[3-(5-Methyl-1,3,4-oxadiazol-2-yl)-phenoxy]-3-[4-(2-methoxyphenyl)-piperazin-1-yl]-propan-2-ol]	0.0333	5.68	224	6730
COc1ccccc1N1CCN(CC(O)COc2cccc(-c3nnco3)c2)CC1 (stereo not shown) [Example 7, 1-[3-(1,3,4-Oxadiazol-2-yl)-phenoxy]-3-[4-(2-methoxyphenyl)piperazin-1-yl]-propan-2-ol]	0.0754	2.51	215	2850
CCOc1ccccc1N1CCN(CC(O)COc2cccc(-c3nnc(C)o3)c2)CC1 (stereo not shown) [Example 12, 1-[3-(5-Methyl-1,3,4-oxadiazol-2-yl)-phenoxy]-3-[4-(2-ethoxyphenyl)-piperazin-1-yl]-propan-2-ol]	0.0195	9.69	162	8300
COc1ccccc1N1CCN(CC(O)COc2ccccc2-c2nnc(C)o2)CC1 (stereo not shown) [Example 2]	0.0221	8.55	56.2	2540
Cc1nnc(-c2cccc(OCC(O)CN3CCN(c4ccccc4Cl)CC3)c2)o1 (stereo not shown) [Example 16, 1-[3-(5-Methyl-1,3,4-oxadiazol-2-yl)-phenoxy]-3-[4-(2-chlorophenyl)-piperazin-1-yl]-propan-2-ol]	0.0716	2.64	178	2490
COc1ccccc1N1CCN(CCCNc2cc(=O)n(C)c(=O)n2C)CC1 [Urapidil, 6-{3-[4-(2-methoxyphenyl)-piperazin-1-yl]-propylamino}-1,3-dimethyluracil, reference compound]	0.189	1.00	362	1920
